What was measured:
[1] = biological target: T1, CSBP2 (Homo sapiens, UniProt Q16539); assay: CSBP Kinase Assay (32P transfer to EGFR-derived peptide T669); type: biochemical
T1 construct: made in house; host or cells: yeast
Procedure: Compounds (5 ul from [6X] stock^(2)) are pre-incubated with the enzyme and peptide for 20 min on ice prior to starting the reactions with 32P/MgATP. Reactions are incubated at 30° C. for 10 min and stopped by adding 10 ul of 0.3 M phosphoric acid. 32P-labeled peptide is separated on phosphocellulose (Wattman, p81) filters by spotting 30 ul reaction mixture. Filters are washed 3 times with 75 mM phosphoric acid followed by 2 washes with H2 O, and counted for 32P.

[2] = system: human PGHS-2; assay: PGHS-2 protein expression in LPS stimulated human monocytes; type: cell-based
Procedure: The following assay describes a method for determining the inhibitory effects of compounds of Formula (I) on human PGHS-2 protein expression in LPS stimulated human monocytes.
Method: Human peripheral blood monocytes were isolated from buffy coats by centrifugation through Ficoll and Percoll gradients. Cells were seeded at 2×10^6 /well in 24 well plates and allowed to adhere for 1 hour in RPMI supplemented with 1% human AB serum, 20 mM L-glutamine, Penicillin-Streptomycin and 10 mM HEPES. Compounds were added at various concentrations and incubated at 37° C. for 10 minutes. LPS was added at 50 ng/well (to induce enzyme expression) and incubated overnight at 37° C. The supernatant was removed and cells washed once in cold PBS. The cells were lysed in 100 μl of cold lysis buffer(50 mM Tris/HCl pH 7.5, 150 mM NaCl, 1% NP40, 0.5% sodium deoxycholate, 0.1% SDS, 300 ug/ml DNAse, 0.1% TRITON X-100, 1 mM PMSF, 1 mM leupeptin, 1 mM pepstatin). The lysate was centrifuged (10,000× g for 10 min. at 4° C.) to remove debris and the soluble fraction was subjected to SDS PAGE. analysis (12% gel). Protein separated on the gel were transferred onto nitrocellulose membrane by electrophoretic means for 2 hours at 60 volts. The membrane was pretreated for one hour in PBS/0.1% Tween 20 with 5% non-fat dry milk. After washing 3 times in PBS/Tween buffer, the membrane was incubated with a 1:2000 dilution of a monospecific antiserum to PGHS-2 or a 1:1000 dilution of an antiserum to PGHs-1 in PBS/Tween with 1% BSA for one hour with continuous shaking. The membrane was washed 3× in PBS/Tween and then incubated with a 1:3000 dilution of horseradish peroxidase conjugated donkey antiserum to rabbit Ig (Amersham) in PBS/Tween with 1% BSA for one hour with continuous shaking. The membrane was then washed 3× in PBS/Tween and the ECL immunodetection system (Amersham) was used to detect the level of expression of prostaglandin endoperoxide synthases-2.

[3] = system: Interleukin-1 (IL-1); assay: IL-1 production by LPS-stimulated human peripheral blood monocytes (IL-1 bioassay or ELISA); type: cell-based; conditions: LPS 50 ng/ml, 24 hours
Procedure: The cytokine-inhibiting effects of compounds of the present invention were determined by the following in vitro assays: Interleukin -1 (IL-1) Human peripheral blood monocytes are isolated and purified from either fresh blood preparations from volunteer donors, or from blood bank buffy coats, according to the procedure of Colotta et al, J Immunol, 132, 936 (1984). These monocytes (1×10^6) are plated in 24-well plates at a concentration of 1-2 million/ml per well. The cells are allowed to adhere for 2 hours, after which time non-adherent cells are removed by gentle washing. Test compounds are then added to the cells for about 1 hour before the addition of lipopolysaccharide (50 ng/ml), and the cultures are incubated at 37° C. for an additional 24 hours. At the end of this period, culture supernatants are removed and clarified of cells and all debris. Culture supernatants are then immediately assayed for IL-1 biological activity, either by the method of Simon et al., J. Immunol. Methods, 84, 85, (1985) (based on ability of IL-1 to stimulate a Interleukin 2 producing cell line (EL-4) to secrete IL-2, in concert with A23187 ionophore) or the method of Lee et al., J. ImmunoTherapy, 6 (1), 1-12 (1990) (ELISA assay).

[4] = system: Tumour Necrosis Factor (TNF); assay: TNF production by LPS-stimulated human peripheral blood monocytes (radioimmunoassay or ELISA); type: cell-based; conditions: LPS 100 ng/ml, 16-18 hours
[5] = system: Interleukin-8 (IL-8); assay: IL-8 production by primary human umbilical cord endothelial cells (HUVEC), ELISA; type: cell-based; conditions: test compound between 1 and 10 μM
Procedure: Primary human umbilical cord endothelial cells (HUVEC) (Cell Systems, […], Wash.) are maintained in culture medium supplemented with 15% fetal bovine serum and 1% CS-HBGF consisting of aFGF and heparin. The cells are then diluted 20-fold before being plated (250 μl) into gelating coated 96-well plates. Prior to use, culture medium are replaced with fresh medium (200 μl). Buffer or test compound (25 μl, at concentrations between 1 and 10 μM) is then added to each well in quadruplicate wells and the plates incubated for 6h in a humidified incubator at 37° C. in an atmosphere of 5% CO2. At the end of the incubation period, supernatant is removed and assayed for IL-8 concentration using an IL-8 ELISA kit obtained from R&D Systems (Minneapolis, Minn.). All data is presented as mean value (ng/ml) of multiple samples based on the standard curve. IC50's where appropriate are generated by non-linear regression analysis.

T1 sequence (Q16539 whole entry): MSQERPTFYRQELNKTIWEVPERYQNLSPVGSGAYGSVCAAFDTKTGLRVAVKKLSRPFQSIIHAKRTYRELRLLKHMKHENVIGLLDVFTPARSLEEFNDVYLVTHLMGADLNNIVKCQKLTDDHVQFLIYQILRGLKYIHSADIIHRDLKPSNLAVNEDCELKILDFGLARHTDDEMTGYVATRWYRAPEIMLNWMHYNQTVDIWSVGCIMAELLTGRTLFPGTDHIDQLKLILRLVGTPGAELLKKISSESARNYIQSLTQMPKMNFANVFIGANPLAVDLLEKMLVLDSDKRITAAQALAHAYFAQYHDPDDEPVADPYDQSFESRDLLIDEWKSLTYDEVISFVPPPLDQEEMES

## CCOc1nccc(-c2c(-c3ccc(F)cc3)ncn2[C@H]2CC[C@H](O)CC2)n1 [Example 9, trans-1-(4-Hydroxycyclohexyl)-4-(4-fluorophenyl)-5-[(2-ethoxy)pyrimidine-4-yl]imidazole]
[1]
  IC50: < 50 µM

## C[S+]([O-])c1ccc(-c2nc(-c3ccc(F)cc3)c(-c3ccncc3)[nH]2)cc1 (stereo not drawn) [4-(4-Fluorophenyl)-2-(4-methylsulfinylphenyl)-5-(4-pyridyl)imidazole]
[2]; LPS stimulated human monocytes, rank order potency similar to that for inhibiting cytokine production
  inhibition of LPS induced PGHS-2 protein expression: active

## O=C1CCN(c2ccccc2)N1 [phenidone]
[2]; up to 10 uM
  inhibition of LPS induced PGHS-2 protein expression: inactive

## C[S+]([O-])c1ccc(-c2nc3n(c2-c2ccncc2)CCC3)cc1 (stereo not drawn) [2-(4-Methylsulfinylphenyl)-3-(4-pyridyl)-6,7-dihydro-(5H)-pyrrolo[1,2-a]imidazole]
[2]; up to 10 uM
  inhibition of LPS induced PGHS-2 protein expression: inactive

## COc1nccc(-c2c(-c3ccc(F)cc3)ncn2[C@H]2CC[C@H](O)CC2)n1 [Example 2, trans-1-(4-Hydroxycyclohexyl)-4-(4-fluorophenyl)-5-[(2-methoxy)pyrimidin-4-yl]imidazole]
[3]
  inhibitory activity against IL-1: positive inhibitory activity
[4]
  inhibitory activity against TNF: positive inhibitory activity
[5]
  inhibitory activity against IL-8: positive inhibitory activity

## CC(Cc1ccc(O)c(O)c1)C(C)Cc1ccc(O)c(O)c1 (stereo not drawn) [NDGA]
[2]; up to 10 uM
  inhibition of LPS induced PGHS-2 protein expression: inactive

## COc1ccc(C2CNC(=O)C2)cc1OC1CCCC1 (stereo not drawn) [rolipram]
[2]; up to 10 uM
  inhibition of LPS induced PGHS-2 protein expression: inactive

Source: patent US6329526A, “Cycloalkyl substituted imidazoles” (SmithKline Beecham Corporation, priority 1998, dated 2001)
